Measured values published in patent publication US20080033041A1, “USE OF PHENYLETHANOLAMINOTETRALINES FOR PREPARING ANXIOLYTIC DRUGS” (SANOFI-AVENTIS, priority 2004, published 2008).

How the values were obtained:
[1] = tested on: rats of the Wistar strain; assay: Ultrasonic Vocalizations (USVs) test; format: in vivo, rat; details: 10 mg/kg i.p.
Source text: 3) The Ultrasonic Vocalizations (USVs) Test
(Molewijk et al., Psychopharmacology, (1996),128, p. 31-38)
The animals, their preparation and the i.p. dosage of compound to be tested are the same as those described in the Novelty Induced Grooming test.
This test consists of two different sessions: training and testing sessions. In the training procedure, all animals were trained for 2 days prior to testing. Training consisted of placing the animal in a standard operant chamber (ENV-018M, Med Associates, Georgia, Vt.) where shock could be delivered from a programmable shocker (Model ENV-413, Med Associates) and where it is equipped with an ultrasonic detector (Mini-3 Bat Detector, Ultra Sound Advice, UK). On each of two consecutive days, all the animals received 20 shocks (1 mA, 4 seconds) separated by a random interval that averaged 60 seconds and ranging from 30 to 90 seconds. Each shock was administered concurrently with a 4-Watt light and an acoustic tone (85 dB, 4 s). The chamber was dark between each shock presentation.
On the day following training, animals were administered 10 mg/kg of compound A and placed in the operant apparatus for testing. […] USVs (18-22 KHz) were recorded over the intertrial interval and were expressed as a sum of total time spent vocalizing for each animal. […]

[2] = tested on: rats of the Wistar strain; assay: Novelty Induced Grooming Test; format: in vivo, rat; details: 10 mg/kg i.p., 30 min before test, 30-minute session, control 37 (±3.61)
Procedure: 1) The Novelty Induced Grooming Test
(Gipsen et al., (1975), ibid.)
Male rats of the Wistar strain (purchased from Morini, Italy) weighing from 200 to 220 g were used throughout this test. All animals were gently manipulated by experienced facilities' handlers, avoiding any environmental or physical stress. Compounds according to the invention to be tested were injected intraperitoneally (i.p.) to a group of rats at a dosage 10 mg/kg. Control animals received i.p. the same volume of the vehicle (i.e, physiological saline). […]
Rats were placed individually into plexiglas boxes (24×12×24 cm) in a low noise room. After a minute of adaptation, the behaviour of the rats was sampled every 15 seconds, and the occurrence of grooming was recorded in a session of 30 minutes. The occurrence of the following single elements of grooming was scored as grooming: washing (i.e., vibrating movements of the fore paws in front of the snout and licking of the same paws leading to a series of strokes along the snout and semicircular movements over the top of the head), scratching (that is scratching of the body by one of the limbs), licking (that is licking of the body fur, limbs and tail), and genital grooming (that is licking of genital area). Grooming behaviour of all animals was recorded on a tape using a video-camera (Hitachi Videocam) and then replayed and scored by two independent observers. […]

[3] = tested on: rats of the Wistar strain; assay: Elevated Plus Maze test; format: in vivo, rat; details: 10 mg/kg i.p., 5 minutes observation
Source text: 2) The Elevated Plus Maze Test (Pellow S. et al., Journal of Neuroscience Methods, (1985), 14(3), p.149-67) The animals, their preparation and the i.p. dosage of compound to be tested are the same as those described in the Novelty Induced Grooming test. The apparatus consisted of a plus-shaped maze, elevated of 50 centimetres from the floor, with two opposite open arms (50×10 cm) crossed at right angles by two arms of the same dimensions, but enclosed by 40-centimetre high walls with an open roof. In addition, a 1-centimetre high edge made of plexiglas surrounded the open arms to avoid falls. Illumination measured at the centre of the maze was 40 lux. After treatment, the animal was placed at the centre of the plus maze with its nose in the direction of one of the closed arms, and observed for 5 minutes, according to the following parameters: number of entries in the open and closed arms (this parameter can also be expressed by means of percentage of entries in the open arms), and time of presence in each of them (this parameter can also be expressed by means of percentage of time stayed in the open arms. The time of presence measures the time spent by the animal in the open and closed arms. The animals were divided into four groups with 7 animals per group.

[4] = tested on: OF1 mice; assay: Mouse Defense test Battery; format: in vivo; details: 1 hour after administration
Procedure: 6) The Mouse Defense test Battery (Griebel et al., (2002), ibid.) Male OF1 mice weighing 17 to 32 g were supplied by Charles River, Iffa Credo or Janvier (Le Genest, France). Experiments were performed 1 hour after p.o. administration of 0.3 mg/kg or 3 mg/kg of the drug or vehicle. The test was conducted in an oval runway as described (Griebel et al., 1997), 23, p. 19-31). Tested mice were submitted to a 3-minute familiarization period sixty minutes after p.o. administration of compound A. (a) The rat avoidance test/flight: Immediately after the 3-minute familiarization period, the experimenter introduced a hand-held dead rat (killed by CO2 inhalation just before the beginning of the experiment) five times at one end of the runway. The following parameter was recorded: avoidance distance (cm). (b) Risk Assessment/Chase Test: The rat was then brought up to the subject at a speed of approximately 2 m/s. A constant distance of 2 meters separated the rat and the subject when the former was introduced in the runway. The following parameter was recorded: number of stops (pauses in movement). The rat was removed after the chase was completed. (c) Defensive Aggression/Straight Alley: By the closing of two doors (60 cm distant from each other), the runway was then converted to a straight alley in which the subject was constrained. The experimenter brought the rat up to contact the subject in the straight alley. Approaches were directed quickly (within 1 second) to the subject's head. For each such contact, bites by the subjects were recorded.

[5] = tested on: Mongolian gerbils; assay: Social Interaction test; format: in vivo, gerbil; details: 10 mg/kg p.o., 1 hour after administration, control 30 seconds
Procedure: 5) The Social Interaction Test (Salomé et al., Sanofi-Synthelabo Research, CNS Department, Bagneux, France, ibid.) Male Mongolian gerbils (7-week old, 50-60 g, CERJ, France) were used. Experiments were performed 1 hour after per os (p.o.) administration of 10 mg/kg of the drug or vehicle. The procedure was based on that described initially by File et al., Brain Res., (2001), 888, p. 311-313. Testing lasting two days. On day 1, gerbils were placed individually in a plastic box (30×30×20 cm) under high light conditions (300 lux) for a 10-minute free-exploration period to familiarize with the apparatus. Twenty-four hours later, two gerbils of the same weight but unfamiliar to each other were placed together in the box they had previously explored for a 4 minute 30 seconds observation period. Interaction time (sniffing, chasing, grooming the partner) was recorded manually for each pair of gerbils. Locomotor activity (distance travelled in centimetres) was measured with an automated tracking system (Ethovision, Noldus).

[6] = tested on: Sprague-Dawley and Wistar rats; assay: Punished Drinking test; format: in vivo, rat; details: 10 mg/kg i.p., 30 minutes after injection, 5-minute period, control 10
Procedure: 4) The Punished Drinking Test (Griebel et al., (2002), ibid.) Male Sprague-Dawley and Wistar rats (Iffa Credo, L'Arbresle, and Charles River, Saint-Aubin-lès-Elbeuf, France), weighing 180 to 250 g were used. Experiments were performed 30 minutes after i.p. injection of 10 mg/kg of the drug or vehicle. The procedure was a modification of the technique described by Vogel et al., Psychopharmacologia, (1971), 21, p. 1-7. At the beginning of the experiment, rats, deprived of water but not of food for 48 hours prior to testing, were placed in cages (32×25×30 cm) with a stainless steel grid floor. Each cage was placed in sound-attenuated boxes that were well ventilated and contained a drinking tube connected to an external 50 mL burette filled with tap water. Trials were started only after the animal's tongue entered in contact with the drinking tube for the first time. An electric shock (0.6 mA/500 ms) was delivered to the tongue after every twenty licks. The number of shocks was recorded automatically during a 5-minute period. Subsequent comparisons between treatment groups and control were carried out using Dunnett's t-test.

SMILES: CCOC(=O)COc1ccc2c(c1)C[C@@H](NC[C@H](O)c1cccc(Cl)c1)CC2.Cl [compound A, ethyl [(7S) 7-[(2R) 2-(3-chlorophenyl)-2-hydroxyethylamino]-5,6,7,8-tetrahydronaphthalen-2yloxy]-acetate hydrochloride]
- decrease of conditioned USVs versus control [1]: ~50%
- Conditioned USVs duration (total time spent vocalizing) ([1]; control more than 210 seconds): < 120 s
- Number of grooming episodes [2]: 17.71 (±5.91)
- mean number of entries into the open arms ([3]; control 4): 7
- percentage of time in the open arms ([3]; control 32%): 42%
- percentage of entries into the open arms ([3]; control 40%): 50%
- mean time spent in the open arms ([3]; control 78 seconds): 98 s
- Number of bites (defensive aggression/straight alley) ([4]; 0.3 mg/kg p.o., control about 2.75 times): about 1.3 times
- Number of stops (risk assessment/chase test) ([4]; 3 mg/kg p.o., control 9 stops): 6 stops
- Avoidance distance (rat avoidance test/flight) ([4]; 3 mg/kg p.o., control 120 cm): 75 cm
- Social interaction time [5]: 70 s
- Number of shocks (punished responding) [6]: 30 shocks
